The values below come from PMC7400207, “It Takes Two: Dimerization Is Essential for the Broad-Spectrum Predatory and Defensive Activities of the Venom Peptide Mp1a from the Jack Jumper Ant Myrmecia pilosula” (Biomedicines, 2020).

Molecules are shown by their SMILES. Like-named read-outs stand apart in the source and are kept apart here.

This test relates to Haemonchus contortus. The test can be described thus: microbe, parasite or virus in culture. In kind it is cell-based. The protocol: Sheep were infected with H. contortus Kirby isolate (field isolate from the University of New England Kirby Research Farm in 1986; susceptible to all commercial anthelmintics) and housed at the Commonwealth Scientific and Industrial Research Organisation (CSIRO) FD McMaster Laboratory, Armidale, NSW. All animal procedures were approved by the FD McMaster Animal Ethics Committee, CSIRO (Approval Number AEC 17/12, approval date 15.6.2017). Eggs were prepared from overnight fecal collection as described. In brief, feces were filtered through mesh filters, settled, and supernatant removed by vacuum. Eggs were recovered by density centrifugation using 10 and 25% (w/v) sucrose solutions, centrifuged at 650× g for 7 min. Eggs were recovered from the interface of the two sucrose layers, rinsed with distilled water, sterilized with bleach, rinsed again, and diluted to 4500 eggs/mL. Tylosin tartrate (800 μg/mL) and amphotericin B (25.0 μg/mL) were added, and eggs were used immediately for larval development assays.
Assays were conducted using 96-well microtitre plates, with each well containing 50 μL of 2% agar, 20 μL of egg solution and 20 μL of peptide solution in water. The commercial anthelmintic levamisole (Sigma Aldrich) was used as a positive control (final 1% v/v). Negative controls contained equivalent volumes of water or DMSO (final 1% v/v). Plates were incubated at 26 °C for six days. After 24 h, each well was fed with 10 μL of a nutrient solution containing Escherichia coli XL1-Blue1 (grown overnight at 37 °C) and growth medium. The growth medium consisted of yeast extract (1% w/v), Earle’s salt solution (10% v/v), saline solution (0.9% NaCl, w/v), and sodium bicarbonate (1 mM) in Luria-Bertani medium (LB). Larvae were killed and stained with Lugol’s iodine solution after six days. Larvae that had developed to the infective L3 stage were counted, and the numbers in treated assay wells were expressed as a percentage of the number of infective L3 stage larvae in multiple control wells. Concentrations that caused 50% inhibition (IC50 values) were calculated from three experiments of duplicate assays.

On to `CC[C@H](C)[C@H](N)C(=O)N[C@@H](CC(=O)O)C(=O)N[C@@H](Cc1c[nH]c2ccccc12)C(=O)N[C@@H](CCCCN)C(=O)N[C@@H](CCCCN)C(=O)N[C@H](C(=O)N[C@@H](CC(=O)O)C(=O)N[C@@H](Cc1c[nH]c2ccccc12)C(=O)N[C@@H](CCCCN)C(=O)N[C@@H](CCCCN)C(=O)N[C@H](C(=O)N[C@@H](CO)C(=O)N[C@@H](CCCCN)C(=O)N[C@@H](CCCCN)C(=O)N[C@H](C(=O)N[C@H]1CSSC[C@@H](C(=O)N[C@@H](CCCCN)C(=O)N[C@@H](CCCCN)C(=O)N[C@H](C(=O)N[C@@H](CC(C)C)C(=O)N[C@@H](CCCCN)C(=O)N[C@@H](CCC(N)=O)C(N)=O)C(C)C)NC(=O)[C@H](C(C)C)NC(=O)[C@H]([C@@H](C)O)NC(=O)[C@H](CCCCN)NC(=O)[C@H](C(C)C)NC(=O)[C@H](CC(C)C)NC(=O)[C@H](C(C)C)NC(=O)[C@@H](NC(=O)[C@@H](NC(=O)CNC(=O)[C@H](CCCCN)NC(=O)[C@H](CO)NC(=O)[C@@H](NC(=O)[C@H](CC(C)C)NC(=O)CNC(=O)[C@@H](NC(=O)[C@@H](N)CC(C)C)[C@@H](C)CC)C(C)C)[C@@H](C)O)CSSC[C@@H](C(=O)N[C@@H](CCCCN)C(=O)N[C@@H](Cc2ccccc2)C(=O)N[C@@H](CC(C)C)C(N)=O)NC(=O)[C@H](C)NC(=O)[C@H](CCCCN)NC(=O)[C@H](CC(C)C)NC(=O)[C@H](CCSC)NC(=O)[C@H](C(C)C)NC(=O)[C@H](CCCCN)NC1=O)[C@@H](C)O)C(C)C)C(C)C` [Analogue 1a, ∆-myrtoxin-Mp1a], for which the IC50 is 6.8 ± 0.5 µM (H. contortus Kirby isolate, egg to infective L3, 6 days, 26 °C, three experiments of duplicate assays, ± SEM, for 1a the component at higher concentrations (about 90% of population), read-out: Anthelmintic Activity (IC50), inhibition of larval development) and 0.19 µM (H. contortus larval development, component of the response at < 2 µM, read-out: IC50 for the response observed at lower concentrations (biphasic curve)). For the same molecule, the “Larval development as % of that observed in control assays” value (at low micromolar concentrations (< 2 µM)) is 90%. For the same molecule, the “Fold more potent than spider-venom peptide Hi1a” value (larval development, same assay) is recorded as “about threefold”.
